What was measured:
FXR = molecular target: T1, FXR (Homo sapiens, UniProt Q96RI1); assay: bDNA Assay for SHP mRNA; format: cell-based; details: human hepatocarcinoma Huh7 cells, 24 hours treatment, SHP mRNA by bDNA; read-out: SHP gene activation EC50
T1 construct: Plate human hepatocarcinoma Huh7 cells grown in DMEM:F12 with 10% fetal bovine serum; endogenous in cells; host or cells: Huh7 human hepatocarcinoma cells
T1 sequence (Q96RI1 1-486): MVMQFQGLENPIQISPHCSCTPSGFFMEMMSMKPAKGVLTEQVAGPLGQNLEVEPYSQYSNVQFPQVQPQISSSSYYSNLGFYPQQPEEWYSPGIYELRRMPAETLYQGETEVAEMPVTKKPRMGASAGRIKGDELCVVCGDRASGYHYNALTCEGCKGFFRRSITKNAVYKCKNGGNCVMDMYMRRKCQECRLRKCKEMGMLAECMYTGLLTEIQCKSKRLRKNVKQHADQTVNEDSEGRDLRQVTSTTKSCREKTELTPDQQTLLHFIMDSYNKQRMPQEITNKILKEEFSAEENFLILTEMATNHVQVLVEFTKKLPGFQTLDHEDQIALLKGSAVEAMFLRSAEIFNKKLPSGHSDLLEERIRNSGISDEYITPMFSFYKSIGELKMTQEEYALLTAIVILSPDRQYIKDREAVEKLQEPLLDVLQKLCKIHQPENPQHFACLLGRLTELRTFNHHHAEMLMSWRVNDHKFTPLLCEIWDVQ
From the text: FXR is a key, direct transcriptional regulator of the Small Heterodimer Partner (SHP) gene, accession number NM_021969, an atypical member of the nuclear receptor family that lacks a DNA-binding domain. SHP interacts with several conventional and orphan members of the nuclear receptor superfamily, including retinoid receptors and thyroid hormone receptor. SHP inhibits transactivation potential of superfamily members with which it interacts. […] Since FXR directly transactivates transcription of the SHP gene, the SHP branched DNA method (bDNA) quantitates FXR activation by ligands. Thus, increased expression of SHP mRNA, as determined by increase bDNA signal, signifies engagement of FXR by an agonist.
Plate human hepatocarcinoma Huh7 cells grown in DMEM:F12 with 10% fetal bovine serum and in 96 well plate at the density of 1×10^5/well. After overnight incubation, treat the cells with test compounds at various concentrations for 24 hours. […]
Incubate the lysis buffer for 15-minute at 37° C., then transfer 100 μL of the lysate from each well to the corresponding wells of the capture plate. […] Label the mRNA to be measured by addition of 100 μL QuantiGene® label probe working buffer then incubate for 60 minutes at 46° C. […] Incubate the plates at 37° C. for up to 30 minutes and then read on a luminometer (Packard Fusion Alpha, 1 second detection) to detect the luminescent signal. […]

LDLR−/− mice = assay: LDLR−/− Serum Lipid Modulation; format: in vivo; details: male LDLR−/− mice on western diet, 10 mg/kg, once daily oral gavage for seven days
Description: Acclimate animals for two weeks prior to study initiation. House mice individually in polycarbonate cages with filter tops, and maintain mice on a 12:12 hour light-dark cycle (lights on at 6:00 AM) at 21° C. Provide deionized water ad libitum and maintain for two weeks on ‘western diet’ TD 88137 Diet (42% fat, 0.15% cholesterol, Harlan Teklad) ad libitum. Optimize groups of five ten-week-old male LDLR−/− mice based on serum triglyceride and cholesterol levels. Dose groups once daily by oral gavage with various doses of the test compound dissolved in 5% EtOH/5% Solutol in NaCMC (1%), SLS (0.5%), antifoam (0.05%), Povidone (0.085%) for seven days. At the end of the seven-day dosing period, collect blood by cardiac puncture after asphyxiation in a CO2 chamber. […] Lipoproteins were separated by fast protein liquid chromatography, and cholesterol was quantitated with an in-line detection system. […] The colored product produced in the presence of cholesterol was monitored in the flow stream at 505 nm, and the analog voltage from the monitor was converted to a digital signal for collection and analysis. The change in voltage corresponding to change in cholesterol concentration was plotted vs. time, and the area under the curve corresponding to the elution of VLDL-C and HDL-C was calculated using Turbochrome (version 4.12F12) software from PerkinElmer (Norwalk, Conn.).

Compound	EC50 (FXR)	lowering of total cholesterol (LDLR−/− mice)	lowering of triglycerides (LDLR−/− mice)
CCN(Cc1cccc(C(=O)O)c1)c1ccc(OCc2c(C(C)C)cnn2-c2c(Cl)cccc2Cl)cc1C [Example 90, 3-[({4-[2-(2,6-Dichloro-phenyl)-4-isopropyl-2H-pyrazol-3-ylmethoxy]-2-methyl-phenyl}-ethyl-amino)-methyl]-benzoic acid]	~53 nM		
Cc1cc(CN(C)c2ccc(OCc3c(C(C)C)cnn3-c3c(Cl)cccc3Cl)cc2C)cc(C(=O)O)c1 [Example 199, 3-[({4-[2-(2,6-Dichloro-phenyl)-4-isopropyl-2H-pyrazol-3-ylmethoxy]-2-methyl-phenyl}-methyl-amino)-methyl]-5-methyl-benzoic acid]		60%	63%
